This is an account of results in PMC9864848, “A Study of the Interaction between Xanthine Oxidase and Its Inhibitors from Chrysanthemum morifolium Using Computational Simulation and Multispectroscopic Methods” (Metabolites, 2023).

The target in assay [1] is T1, xanthine oxidase (Bos taurus, UniProt P80457).
T1 construct: purchased Roche Diagnostics (Mannheim, Germany)
In words: Xanthine oxidase (XO) inhibitory assay. It is filed as biochemical, Bovine. The settings on record: read-out: XO inhibition (%). The protocol: A total of 100 μL of test samples containing dimethyl sulfoxide (100 μg/mL) and 0.1 U/mL xanthine oxidase (100 µL) were added to a 0.05 M potassium phosphate buffer (1.3 mL, pH 7.5). The mixture was then incubated at 25 °C for 10 min. A 1 mL of 0.15 mM xanthine was added into the solution, then incubated at 30 °C for 10 min. […] The percentage of XO inhibition was calculated as follows: Inhibition (%)=Absorbancenegative control−Absorbancesample/Absorbancenegative control×100% Absorbancenegative control = Absorbance of the negative control (without inhibitors) Absorbancesample = Absorbance of the solution containing test samples

Assay [2] relates to XO. The settings on record: cited from earlier work.
The target of assay [3] is T2, XO (Bos taurus, UniProt P80457).
T2 construct: purchased Roche Diagnostics (Mannheim, Germany)
T2 sequence (P80457 whole entry): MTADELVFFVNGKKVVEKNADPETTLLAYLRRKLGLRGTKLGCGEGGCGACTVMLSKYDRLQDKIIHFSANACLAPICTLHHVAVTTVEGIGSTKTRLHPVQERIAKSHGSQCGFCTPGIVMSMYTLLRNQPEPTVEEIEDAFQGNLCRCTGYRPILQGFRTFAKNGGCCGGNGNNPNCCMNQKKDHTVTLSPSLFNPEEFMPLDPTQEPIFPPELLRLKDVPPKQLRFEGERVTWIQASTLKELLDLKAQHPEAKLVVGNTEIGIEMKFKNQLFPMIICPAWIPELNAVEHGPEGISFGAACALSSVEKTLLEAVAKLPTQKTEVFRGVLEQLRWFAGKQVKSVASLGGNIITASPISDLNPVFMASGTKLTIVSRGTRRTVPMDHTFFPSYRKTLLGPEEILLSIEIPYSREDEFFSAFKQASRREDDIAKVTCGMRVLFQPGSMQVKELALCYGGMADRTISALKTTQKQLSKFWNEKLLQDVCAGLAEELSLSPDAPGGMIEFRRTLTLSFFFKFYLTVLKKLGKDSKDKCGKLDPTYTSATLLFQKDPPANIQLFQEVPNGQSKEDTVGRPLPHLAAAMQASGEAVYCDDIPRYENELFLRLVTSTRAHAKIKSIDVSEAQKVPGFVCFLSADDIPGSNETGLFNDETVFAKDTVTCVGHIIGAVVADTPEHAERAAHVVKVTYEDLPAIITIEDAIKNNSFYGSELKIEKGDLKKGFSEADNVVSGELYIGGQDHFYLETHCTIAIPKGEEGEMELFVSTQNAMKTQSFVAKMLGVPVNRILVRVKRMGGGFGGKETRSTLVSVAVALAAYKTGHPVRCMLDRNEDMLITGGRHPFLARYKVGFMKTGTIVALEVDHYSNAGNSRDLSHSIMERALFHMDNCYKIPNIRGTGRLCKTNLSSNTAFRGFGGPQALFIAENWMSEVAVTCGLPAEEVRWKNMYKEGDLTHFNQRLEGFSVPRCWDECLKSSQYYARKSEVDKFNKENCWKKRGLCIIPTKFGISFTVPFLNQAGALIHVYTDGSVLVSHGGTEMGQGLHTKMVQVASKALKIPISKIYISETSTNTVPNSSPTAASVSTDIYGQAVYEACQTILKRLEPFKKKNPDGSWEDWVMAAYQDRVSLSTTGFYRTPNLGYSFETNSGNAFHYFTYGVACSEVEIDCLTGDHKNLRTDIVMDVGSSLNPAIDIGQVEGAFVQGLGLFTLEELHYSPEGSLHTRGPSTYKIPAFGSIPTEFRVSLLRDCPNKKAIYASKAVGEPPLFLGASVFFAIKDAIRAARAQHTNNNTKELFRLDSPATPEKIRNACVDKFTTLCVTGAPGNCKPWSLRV
In words: Circular dichroism (CD) analysis of XO secondary structure. Also on record: species or system Bovine. The method, then: The analysis was carried out according to a modified method. […] The measurement was performed in potassium phosphate buffer (pH 7.5) at room temperature. […] The JASCO SSE (Secondary Structure Estimation) software was used to analyze the CD spectroscopic data with Reed’s reference to obtain the data of various secondary structures of XO with respective ligands.
(CD spectra are sensitive to the conformation of chiral molecules.)

In assay [4] the target is T2, XO. In words: Fluorescence quenching assay of XO. It is filed as binding, Bovine. The settings on record: pH 7.5; for Kd: Modified Stern-Volmer association constant Ka. The method, then:
The assay was carried out by referring to a previous method with slight modifications. […] Titrations were performed manually and mixed carefully. […] The excitation wavelength was set at 280 nm, and the excitation and emission slits were 5 nm. The fluorescence background was corrected by subtracting the relevant blanks corresponding to the potassium phosphate buffer (pH 7.5).
To distinguish the mechanism of quenching various inhibitors on XO, the fluorescence quenching output was analyzed by applying the Stern-Volmer equation [34]: F0/F=1+KSV[Q]=1+Kqτ0[Q] where F0 and F represent the steady-state fluorescence intensities of XO in the absence and presence of the respective inhibitor. KSV is the Stern-Volmer quenching constant, determined from the slope of the linear regression of F0/F against the [Q] plot. [Q] represents the concentration of the inhibitor.
Then, Ka values for the inhibitor-XO complex at three different temperatures were calculated from the linear regression of F0/(F0 − F) against 1/[Q].

[5] abbreviates: previous study, read-out: IC50 (XO inhibitory effect).
The mark [6] stands for this setting: molar ratio XO:inhibitor 1:5, pH 7.5 (free XO 15.4).
Setting [7] is: molar ratio XO:inhibitor 1:5, pH 7.5 (free XO 19.7).
Setting [8] is: molar ratio XO:inhibitor 1:5, pH 7.5 (free XO 65.0).
The mark [9] stands for this setting: molar ratio XO:inhibitor 1:10, pH 7.5 (free XO 15.4).
Setting [10] is: molar ratio XO:inhibitor 1:10, pH 7.5 (free XO 19.7).
[11] abbreviates: molar ratio XO:inhibitor 1:10, pH 7.5 (free XO 65.0).
Setting [12] is: at 100 μg/mL, mean ± SEM, n = 3.

Molecules are shown by their SMILES. Like-named read-outs stand apart in the source and are kept apart here.

T1 sequence (P80457 whole entry): as above

Broadly, the inhibition is the percentage by which the read-out fell short of the control. `Oc1ncnc2[nH]ncc12` [Allopurinol, allopurinol, reference compound]: the inhibition at 100 µg/mL in assay [1] was determined as 96.5 ± 2.4%.

What is called IC50 is the concentration at which inhibition is half-maximal. A word on the Kd: it is the constant that tells how readily two partners part at equilibrium. A higher Kd goes with a looser complex. For the compound `O=c1cc(-c2ccc(O)cc2)oc2cc(O)cc(O)c12` [Apigenin, apigenin], in assay [2] (setting [5]), the IC50 was 3.2 µM. The “Random Coil (%) of XO” value is recorded as 22.2% in assay [3] (setting [6]) and 0.0% in assay [3] (setting [9]). Also, the results for the “α-Helix (%) of XO” value in assay [3] (setting [7]) and in assay [3] (setting [10]) were 10.8% and 36.7%, respectively. Also, the “β-Sheet (%) of XO” value came out at 67.0% in assay [3] (setting [8]) and 63.3% in assay [3] (setting [11]). Moreover, the “Quenching constant KSV” value stood at 130200 L/mol in assay [4] (298 K), 332400 L/mol in assay [4] (304 K) and 182100 L/mol in assay [4] (310 K). Moreover, the “Quenching rate constant Kq” value in assay [4] (298 K) turned out to be 4.65e+13 M⁻¹ s⁻¹; in assay [4] (304 K), 1.187e+14 M⁻¹ s⁻¹; in assay [4] (310 K), 6.504e+13 M⁻¹ s⁻¹. Besides, the figures for the Kd in assay [4] (298 K), in assay [4] (304 K) and in assay [4] (310 K) were 5.33 µM, 3.5 µM and 4.3 µM, respectively. The inhibition at 100 µg/mL in assay [1] (setting [12]) is 56.6 ± 1.77%.

On to `COc1cc(CC(=O)O)ccc1O` [Homovanillic acid, homovanillic acid], for which the “XO inhibitory potency (in words)” value in assay [2] (ref 28 (Mohos et al.)) is reported as “less potent inhibitor of XO”. In addition, the “Random Coil (%) of XO” value in assay [3] (setting [6]) stood at 0.0%; in assay [3] (setting [9]), 27.0%. In addition, the “α-Helix (%) of XO” value is 36.3% in assay [3] (setting [7]) and 5.1% in assay [3] (setting [10]). In addition, the “β-Sheet (%) of XO” value turned out to be 63.7% in assay [3] (setting [8]) and 67.9% in assay [3] (setting [11]). Also, the “Quenching constant KSV” value in assay [4] (298 K) was found to be 49100 L/mol; in assay [4] (304 K), 93100 L/mol; in assay [4] (310 K), 698800 L/mol. In addition, the “Quenching rate constant Kq” value was determined as 1.754e+13 M⁻¹ s⁻¹ in assay [4] (298 K), 3.325e+13 M⁻¹ s⁻¹ in assay [4] (304 K) and 2.4957e+14 M⁻¹ s⁻¹ in assay [4] (310 K). Besides, the Kd was 5.61 µM in assay [4] (298 K), 2.67 µM in assay [4] (304 K) and 4.15 µM in assay [4] (310 K). Moreover, the inhibition at 100 µg/mL in assay [1] was 30 ± 2.18%.

Take `O=c1c(O)c(-c2ccc(O)cc2)oc2cc(O)cc(O)c12` [Kaempferol, kaempferol]: the IC50 in assay [2] (setting [5]) is 2.18 ± 0.02 µM. Besides, the “Random Coil (%) of XO” value in assay [3] (setting [6]) was 11.2%; in assay [3] (setting [9]), 34.2%. Further, the “α-Helix (%) of XO” value in assay [3] (setting [7]) is recorded as 17.1%; in assay [3] (setting [10]), 0.0%. Moreover, the “β-Sheet (%) of XO” value was 71.7% in assay [3] (setting [8]) and 65.8% in assay [3] (setting [11]). The figures for the “Quenching constant KSV” value in assay [4] (298 K), in assay [4] (304 K) and in assay [4] (310 K) were 97700 L/mol, 396400 L/mol and 277900 L/mol, respectively. The results for the “Quenching rate constant Kq” value in assay [4] (298 K), in assay [4] (304 K) and in assay [4] (310 K) were 3.489e+13 M⁻¹ s⁻¹, 1.416e+14 M⁻¹ s⁻¹ and 9.925e+13 M⁻¹ s⁻¹, respectively. Further, in assay [1] (setting [12]), the inhibition at 100 µg/mL turned out to be 81.9 ± 3.31%.

Turning to `O=C(O)/C=C/c1ccccc1` [Trans-cinnamic acid, trans-cinnamic acid], in assay [2] (ref 27 (Chang et al.), read-out: IC50 (XO inhibition)), the IC50 was above 200 µM. The “Random Coil (%) of XO” value in assay [3] (setting [6]) is on record as 0.0%; in assay [3] (setting [9]), 22.7%. Also, the entries for the “α-Helix (%) of XO” value in assay [3] (setting [7]) and in assay [3] (setting [10]) were 36.4% and 10.4%, respectively. Moreover, the entries for the “β-Sheet (%) of XO” value in assay [3] (setting [8]) and in assay [3] (setting [11]) were 63.6% and 66.9%, respectively. Also, the “Quenching constant KSV” value came out at 180000 L/mol in assay [4] (298 K), 282300 L/mol in assay [4] (304 K) and 278400 L/mol in assay [4] (310 K). For the same compound, the figures for the “Quenching rate constant Kq” value in assay [4] (298 K), in assay [4] (304 K) and in assay [4] (310 K) were 6.429e+13 M⁻¹ s⁻¹, 1.008e+14 M⁻¹ s⁻¹ and 9.943e+13 M⁻¹ s⁻¹, respectively. Further, the dissociation constant Kd in assay [4] (298 K) is 8.02 µM; in assay [4] (304 K) it was 3.62 µM; in assay [4] (310 K), 3.49 µM. The inhibition at 100 µg/mL in assay [1] (setting [12]) is 57.6 ± 6%.
